In US8138197B2, “Spirochromanon derivatives” (MSD K.K., priority 2007, dated 2012):

Assays:
human ACC1 = human ACC1 (Homo sapiens, UniProt Q13085); assay: Acetyl CoA carboxylase (ACC) activity inhibition test, human ACC1; assay type: biochemical; conditions: 1 μmol/liter compound; [14C] bicarbonate fixation, 37° C., 40 minutes; read-out: Inhibition (%) by 1 μmol/liter Chemical, human ACC1
Procedure: (§1) A. Pharmacological Test Example (Acetyl CoA Carboxylase (ACC) Activity Inhibition Test)
(§2) A test compound is dissolved in dimethyl sulfoxide (DMSO) to a concentration of 10 mM and then diluted with DMSO to give a 100-fold concentrated solution of the compound compared with target assay concentration. The ACC enzyme activity inhibition test is carried out according to a modification of Thampy & Wakil's method (J. Biol. Chem., Vol. 260, pp. 6318-6323 (1985)). Concretely, 0.8 μl of the diluted test compound is added to each well of 96-well assay plate (Perkin Elmer Opti Plate), then 40 μl of a substrate solution (50 mM Hepes sodium (pH 7.5), 2 mM DTT, 10 mM ATP, 500 μM acetyl CoA, 0.17 mM NaH[^14C]O3 (58 mCi/mmol, by Amersham), 8 mM NaHCO3) is added to each well, and 40 μL of an enzyme solution ([…] human ACC1 or human ACC2, 50 mM Hepes sodium (pH 7.5), 2 mM DTT, 40 mM MgCl2, 40 mM tripotassium citrate 1 mg/ml fetal bovine serum albumin) is added thereto. Then, the upper side of the plate is sealed up, and the plate is incubated with gently stirring at 37° C. for 40 minutes. Next, 20 μl of 1 N HCl is added to each well to stop the enzyme reaction, and the assay plate is stirred overnight to remove the unreacted NaH[^14C]O3. Next, 100 μl of a scintillator (Perkin Elmer's Microscinti 40) is added to each well and the plate is stirred, then the radioactivity of the fixed [^14C] is counted using a microplate scintillation counter (Perkin Elmer's Topcount), the radioactivity of which represents the enzyme activity in each well. The human ACC1 and human ACC2 enzyme-inhibition activities of the test compounds are calculated, based on the radioactivity of the well added by DMSO without test compound as a control.

human ACC2 = human ACC2 (Homo sapiens, UniProt O00763); assay: Acetyl CoA carboxylase (ACC) activity inhibition test, human ACC2; assay type: biochemical; conditions: 1 μmol/liter compound; [14C] bicarbonate fixation, 37° C., 40 minutes; read-out: Inhibition (%) by 1 μmol/liter Chemical, human ACC2
Chain of human ACC2 (O00763 whole entry): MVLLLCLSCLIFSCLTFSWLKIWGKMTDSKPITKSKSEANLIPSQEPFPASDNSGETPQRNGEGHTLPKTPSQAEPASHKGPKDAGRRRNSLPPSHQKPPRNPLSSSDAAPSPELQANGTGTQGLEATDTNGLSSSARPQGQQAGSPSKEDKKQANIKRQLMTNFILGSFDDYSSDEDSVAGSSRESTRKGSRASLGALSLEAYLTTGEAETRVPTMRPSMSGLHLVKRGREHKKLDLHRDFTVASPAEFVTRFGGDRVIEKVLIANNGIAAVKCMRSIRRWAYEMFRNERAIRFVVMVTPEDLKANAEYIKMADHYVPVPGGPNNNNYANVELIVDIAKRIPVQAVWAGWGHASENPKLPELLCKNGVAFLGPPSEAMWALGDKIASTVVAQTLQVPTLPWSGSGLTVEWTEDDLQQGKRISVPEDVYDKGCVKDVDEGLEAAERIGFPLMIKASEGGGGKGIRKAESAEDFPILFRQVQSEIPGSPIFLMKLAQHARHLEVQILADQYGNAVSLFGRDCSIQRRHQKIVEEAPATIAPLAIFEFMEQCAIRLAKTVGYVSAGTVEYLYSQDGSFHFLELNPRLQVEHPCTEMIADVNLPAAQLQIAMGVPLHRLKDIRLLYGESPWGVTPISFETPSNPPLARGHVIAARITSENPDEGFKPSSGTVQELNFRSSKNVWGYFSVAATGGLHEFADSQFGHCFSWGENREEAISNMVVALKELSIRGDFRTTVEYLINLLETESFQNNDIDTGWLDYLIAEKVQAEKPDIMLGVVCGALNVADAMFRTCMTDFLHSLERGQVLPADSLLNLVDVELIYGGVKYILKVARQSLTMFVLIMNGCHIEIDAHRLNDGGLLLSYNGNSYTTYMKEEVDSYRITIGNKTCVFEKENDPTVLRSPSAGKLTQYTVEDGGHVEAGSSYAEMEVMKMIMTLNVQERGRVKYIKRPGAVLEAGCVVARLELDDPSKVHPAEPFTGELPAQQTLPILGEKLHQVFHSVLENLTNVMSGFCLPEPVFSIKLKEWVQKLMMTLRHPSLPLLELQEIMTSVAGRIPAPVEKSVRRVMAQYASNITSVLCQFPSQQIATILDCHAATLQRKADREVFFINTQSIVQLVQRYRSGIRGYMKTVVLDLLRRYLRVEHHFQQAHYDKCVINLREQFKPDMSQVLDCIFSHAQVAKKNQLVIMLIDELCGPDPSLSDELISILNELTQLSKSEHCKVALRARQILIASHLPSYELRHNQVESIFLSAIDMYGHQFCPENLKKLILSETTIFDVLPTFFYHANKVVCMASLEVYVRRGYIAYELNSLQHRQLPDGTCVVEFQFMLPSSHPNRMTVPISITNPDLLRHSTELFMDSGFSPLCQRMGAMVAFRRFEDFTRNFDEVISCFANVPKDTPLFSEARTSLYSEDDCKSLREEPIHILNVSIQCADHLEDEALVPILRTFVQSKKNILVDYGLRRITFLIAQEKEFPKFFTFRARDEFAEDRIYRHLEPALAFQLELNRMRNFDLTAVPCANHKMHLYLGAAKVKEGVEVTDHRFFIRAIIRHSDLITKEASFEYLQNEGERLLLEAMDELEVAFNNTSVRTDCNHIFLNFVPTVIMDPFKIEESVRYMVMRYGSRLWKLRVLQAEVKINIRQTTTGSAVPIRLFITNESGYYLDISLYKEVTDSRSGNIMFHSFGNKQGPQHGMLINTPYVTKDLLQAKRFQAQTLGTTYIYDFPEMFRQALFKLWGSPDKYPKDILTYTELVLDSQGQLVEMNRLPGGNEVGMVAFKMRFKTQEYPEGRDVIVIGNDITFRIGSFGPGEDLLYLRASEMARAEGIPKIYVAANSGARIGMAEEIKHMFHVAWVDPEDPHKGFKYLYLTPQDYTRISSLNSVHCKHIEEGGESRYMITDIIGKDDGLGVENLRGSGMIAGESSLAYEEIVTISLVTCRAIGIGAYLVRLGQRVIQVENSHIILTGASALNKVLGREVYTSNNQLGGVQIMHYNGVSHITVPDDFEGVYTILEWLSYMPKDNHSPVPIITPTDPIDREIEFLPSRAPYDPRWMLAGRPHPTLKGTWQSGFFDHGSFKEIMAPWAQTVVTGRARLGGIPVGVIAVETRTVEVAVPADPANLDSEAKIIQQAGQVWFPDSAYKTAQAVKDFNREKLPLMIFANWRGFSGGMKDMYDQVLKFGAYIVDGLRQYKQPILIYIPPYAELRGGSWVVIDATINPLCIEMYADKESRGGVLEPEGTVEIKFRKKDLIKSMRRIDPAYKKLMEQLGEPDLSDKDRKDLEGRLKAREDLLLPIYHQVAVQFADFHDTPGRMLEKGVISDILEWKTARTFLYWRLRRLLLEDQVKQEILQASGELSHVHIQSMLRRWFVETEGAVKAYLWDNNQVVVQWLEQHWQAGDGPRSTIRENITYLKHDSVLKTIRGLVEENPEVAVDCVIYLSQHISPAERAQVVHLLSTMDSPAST
Procedure: as §1, §2

| SMILES | inhibition at 1 µM (human ACC1) | inhibition at 1 µM (human ACC2) |
| --- | --- | --- |
| CCOc1cc(C(=O)N2CCC3(CC2)CC(=O)c2cc(-c4cncc(C(=O)O)c4)ccc2O3)cc(OCC)c1-c1cnn(C)c1 [Example 25, 5-(1′-{[3,5-Diethoxy-4-(1-methyl-1H-pyrazol-4-yl)phenyl]carbonyl}-4-oxospiro[chroman-2,4′-piperidin]-6-yl)pyridine-3-carboxylic acid] | 100% | 99% |
| COc1cc(C(=O)N2CCC3(CC2)CC(=O)c2cc(-c4nnn[nH]4)ccc2O3)cc(OC)c1-c1ccccc1 [Example 5] | 94% | 97% |
| CCOc1cc(C(=O)N2CCC3(CC2)CC(=O)c2cc(-c4nnn[nH]4)ccc2O3)cc(OCC)c1-c1cnn(C)c1 [Example 12, 1′-{[3,5-Diethoxy-4-(1-methyl-1H-pyrazol-4-yl)phenyl]carbonyl}-6-(tetrazol-5-yl)spiro[chroman-2,4′-piperidin]-4-one] | 100% | 99% |
| CCOc1cc(C(=O)N2CCC3(CC2)CC(=O)c2cc(-c4nnn[nH]4)ccc2O3)cc(OC)c1-c1cnn(C)c1 [Example 29, 1′-{[3-Ethoxy-5-methoxy-4-(1-methyl-1H-pyrazol-4-yl)phenyl]carbonyl}-6-(tetrazol-5-yl)spiro[chroman-2,4′-piperidin]-4-one] | 99% | 99% |
| CCOc1cc(C(=O)N2CCC3(CC2)CC(=O)c2cc(-c4ccnc(C(=O)O)c4)ccc2O3)cc(OCC)c1-c1cnn(C)c1 [Example 37, 4-(1′-{[3,5-Diethoxy-4-(1-methyl-1H-pyrazol-4-yl)phenyl]carbonyl}-4-oxospiro[chroman-2,4′-piperidin]-6-yl)pyridine-2-carboxylic acid] | 100% | 99% |

Next, values leading:

| inhibition at 1 µM (human ACC1) | inhibition at 1 µM (human ACC2) | SMILES |
| --- | --- | --- |
| 93% | 97% | CCOc1cc(C(=O)N2CCC3(CC2)CC(=O)c2cc(-c4nnn(COC(=O)C(C)(C)C)n4)ccc2O3)cc(OC)c1-c1cnn(C)c1 [Example 63, (5-{1′-[3-ethoxy-5-methoxy-4-(1-methyl-1H-pyrazol-4-yl)benzoyl]-4-oxospiro[chroman-2,4′-piperidin]-6-yl}-2H-tetrazol-2-yl)methylpivalate] |
| 99% | 98% | Cn1nc(-c2ccccc2)c2ccc(C(=O)N3CCC4(CC3)CC(=O)c3cc(-c5nnn[nH]5)ccc3O4)cc21 [Example 56, 1′-[(1-Methyl-3-phenyl-1H-indazol-6-yl)carbonyl]-6-(tetrazol-5-yl)spiro[chroman-2,4′-piperidin]-4-one] |
| 98% | 99% | Cn1cc(-c2ccc3c(c2)C(=O)CC2(CCN(C(=O)c4cc(-c5nnn[nH]5)c5ccn(C6CC6)c5c4)CC2)O3)cn1 [Example 42, 1′-{[1-Cyclopropyl-4-(tetrazol-5-yl)-1H-indol-6-yl]carbonyl}-6-(1-methyl-1H-pyrazol-4-yl)spiro[chroman-2,4′-piperidin]-4-one] |
| 99% | 99% | CCOc1cc(C(=O)N2CCC3(CC2)CC(=O)c2cc(-c4ccc(C(N)=O)cn4)ccc2O3)cc(OC)c1-c1cnn(C)c1 [Example 77, 6-{1′-[3-ethoxy-5-methoxy-4-(1-methyl-1H-pyrazol-4-yl)benzoyl]-4-oxospiro[chroman-2,4′-piperidin]-6-yl}nicotinamide] |
| 99% | 99% | COc1cc(C(=O)N2CCC3(CC2)CC(=O)c2cc(-c4ccc(C(N)=O)cn4)ccc2O3)cc(OC)c1-c1cnn(C)c1 [Example 68, 6-{1′-[3,5-dimethoxy-4-(1-methyl-1H-pyrazol-4-yl)benzoyl]-4-oxospiro[chroman-2,4′-piperidin]-6-yl}nicotinamide] |
| 99% | 99% | CCOc1cc(C(=O)N2CCC3(CC2)CC(=O)c2cc(-c4cnn(C)c4)ccc2O3)cc(OC)c1-c1cnn(C)c1 [Example 79, 1′-[3-Ethoxy-5-methoxy-4-(1-methyl-1H-pyrazol-4-yl)benzoyl]-6-(1-methyl-1H-pyrazol-4-yl)spiro[chroman-2,4′-piperidin]4-one] |
| 98% | 89% | Cc1nn(-c2ccccn2)c2sc(C(=O)N3CCC4(CC3)CC(=O)c3cc(-c5nnn[nH]5)ccc3O4)cc12 [Example 51, 1′-[(3-Methyl-1-pyridin-2-yl-1H-thieno[2,3-c]pyrazol-5-yl)carbonyl]-6-(tetrazol-5-yl)spiro[chroman-2,4′-piperidin]-4-one] |
| 99% | 99% | CCOc1cc(C(=O)N2CCC3(CC2)CC(=O)c2cc(-c4ccc(C(=O)O)cn4)ccc2O3)cc(OCC)c1-c1cnn(C)c1 [Example 71, Sodium 6-{1′-[3,5-diethoxy-4-(1-methyl-1H-pyrazol-4-yl)benzoyl]-4-oxospiro[chroman-2,4′-piperidin]-6-yl}nicotinate] |
